Experimental data reported in ChEMBL document CHEMBL1201862, “PubChem BioAssay data set” (2004).
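48-hour exposure; five concentrations; linearly interpolated endpoints. At the GI50, growth is halved.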 The source made the active and inactive calls. Cut-off read from the data, not from the text of the source: active = GI50 up to about 1.1 µM and inactive = higher.

Assays:
Experiment in all cases: DTP human tumour cell line panel, 48 h
UACC-62 = tested on: UACC-62
RXF 393 = tested on: RXF 393
MOLT-4 = tested on: MOLT-4
Malme-3M = tested on: Malme-3M
SNB-19 = tested on: SNB-19
KM12 = tested on: KM12
TK-10 = tested on: TK-10
SK-MEL-2 = tested on: SK-MEL-2
HT-29 = tested on: HT-29
SW-620 = tested on: SW-620
UO-31 = tested on: UO-31
SK-MEL-5 = tested on: SK-MEL-5
SN12C = tested on: SN12C
SNB-75 = tested on: SNB-75
HOP-62 = tested on: HOP-62
OVCAR-8 = tested on: OVCAR-8
NCI-H522 = tested on: NCI-H522
SF-539 = tested on: SF-539
COLO 205 = tested on: COLO 205
ACHN = tested on: ACHN

| SMILES | GI50 (UACC-62) | GI50 (RXF 393) | GI50 (MOLT-4) | GI50 (Malme-3M) | GI50 (SNB-19) | GI50 (KM12) | GI50 (TK-10) | GI50 (SK-MEL-2) | GI50 (HT-29) | GI50 (SW-620) | GI50 (UO-31) | GI50 (SK-MEL-5) | GI50 (SN12C) | GI50 (SNB-75) | GI50 (HOP-62) | GI50 (OVCAR-8) | GI50 (NCI-H522) | GI50 (SF-539) | GI50 (COLO 205) | GI50 (ACHN) |
| --- | --- | --- | --- | --- | --- | --- | --- | --- | --- | --- | --- | --- | --- | --- | --- | --- | --- | --- | --- | --- |
| O=C(O)c1cc(-c2ccc3cc4c(cc3c2)OCO4)nc2ccccc12 | 23.5 µM (inactive) | 54 µM (inactive) | 28.8 µM (inactive) | 65.2 µM (inactive) | 25.7 µM (inactive) | > 100 µM (inactive) | 18.2 µM (inactive) | 62.7 µM (inactive) | 25.9 µM (inactive) | 45.2 µM (inactive) | 11.5 µM (inactive) | 24 µM (inactive) | 20.8 µM (inactive) | 49.7 µM (inactive) | 41.1 µM (inactive) | 37.1 µM (inactive) | 35.3 µM (inactive) | 92.9 µM (inactive) | 42.4 µM (inactive) | 37.8 µM (inactive) |
| CCN1CCC(O)(/C=C/c2ccc(C)cc2)C(C(=O)/C=C/c2ccc(C)cc2)C1 (stereo not drawn) | 3.08 µM (inactive) | 2.79 µM (inactive) | 1.63 µM (inactive) | 6.75 µM (inactive) | 9.42 µM (inactive) | 2.19 µM (inactive) | 5.45 µM (inactive) | 3.75 µM (inactive) | 2.61 µM (inactive) | 1.75 µM (inactive) | 3.85 µM (inactive) | 3.43 µM (inactive) | 7.69 µM (inactive) | 9.79 µM (inactive) | 12.5 µM (inactive) | 2.81 µM (inactive) | 1.7 µM (inactive) | 3.61 µM (inactive) | 1.75 µM (inactive) | 3.7 µM (inactive) |
| CCCS(=O)(=O)O | > 100 µM (inactive) | > 100 µM (inactive) | > 100 µM (inactive) | > 100 µM (inactive) | > 100 µM (inactive) | > 100 µM (inactive) | > 100 µM (inactive) | > 100 µM (inactive) | > 100 µM (inactive) | > 100 µM (inactive) | > 100 µM (inactive) | > 100 µM (inactive) |  | > 100 µM (inactive) | > 100 µM (inactive) | > 100 µM (inactive) | > 100 µM (inactive) | > 100 µM (inactive) | > 100 µM (inactive) | > 100 µM (inactive) |
| Cc1ccc(NC(=S)NNC(=O)c2cc(-c3ccccc3)nc3ccccc23)cc1C | 16.9 µM (inactive) | 27 µM (inactive) | 20.8 µM (inactive) | 20 µM (inactive) | 32 µM (inactive) | 27.4 µM (inactive) | 23.7 µM (inactive) | 18.6 µM (inactive) | 23.7 µM (inactive) | 31.5 µM (inactive) | 17.9 µM (inactive) | 18 µM (inactive) | 17.6 µM (inactive) | 16.3 µM (inactive) | 22 µM (inactive) | 20.8 µM (inactive) | 22.5 µM (inactive) | 21.2 µM (inactive) | 16.6 µM (inactive) | 25.2 µM (inactive) |
| O=C(NC1C/C(=N/O)c2c(Br)sc(Br)c21)C(F)(F)F (stereo not drawn) | 16.9 µM (inactive) | 11.3 µM (inactive) | 26.3 µM (inactive) | 45.9 µM (inactive) | 41.7 µM (inactive) | 45 µM (inactive) | 36.3 µM (inactive) | 11.4 µM (inactive) | 26.9 µM (inactive) | 30.2 µM (inactive) | 13.7 µM (inactive) | 19.6 µM (inactive) | 21.2 µM (inactive) | 29.5 µM (inactive) |  | 20.7 µM (inactive) | 26.1 µM (inactive) | 17.3 µM (inactive) | 51.8 µM (inactive) | 34 µM (inactive) |
| C=CCNC(=O)N(CCC)CCCCC(NC(C)=O)C(=O)NCc1ccccc1 (stereo not drawn) | > 100 µM (inactive) | > 100 µM (inactive) | > 100 µM (inactive) | > 100 µM (inactive) | > 100 µM (inactive) | > 100 µM (inactive) | > 100 µM (inactive) | > 100 µM (inactive) | > 100 µM (inactive) | > 100 µM (inactive) | > 100 µM (inactive) | > 100 µM (inactive) | > 100 µM (inactive) | > 100 µM (inactive) | > 100 µM (inactive) | > 100 µM (inactive) | > 100 µM (inactive) | > 100 µM (inactive) | > 100 µM (inactive) | > 100 µM (inactive) |
| CC(C)(C)C(=O)OCC1C(=O)OCC1C(=O)N1Cc2cc3ccccc3nc2C1 (stereo not drawn) | 4.51 µM (inactive) | 1.5 µM (inactive) | 1.06 µM (active) | 1.46 µM (inactive) | 18.3 µM (inactive) | 15.8 µM (inactive) | 2.15 µM (inactive) | 8.59 µM (inactive) | 3.5 µM (inactive) | 1.57 µM (inactive) | 2.47 µM (inactive) | 15.2 µM (inactive) | 5.28 µM (inactive) | 7.74 µM (inactive) | 14.4 µM (inactive) | 3.99 µM (inactive) | 0.569 µM (active) | 4.46 µM (inactive) | 0.957 µM (active) | 2.36 µM (inactive) |
